The values below come from patent US20060269601A1, “Oral modified release formulations containing 8-prenylnaringenin for continuous estrogen support” (priority 2005, published 2006).

One data set relates to uterus. Conditions: compared with estradiol at equivalent bone protective doses; cited from earlier work.
A short description of data set [1]: pH-dependent solubility of 8-prenylnaringenin. Conditions: dependence on pH. The data set is classed as physicochemical. An excerpt:
The solid oral modified release formulations of this invention show a pH-independent drug release in vitro. This is important as the pH varies considerably in the gastro-intestinal tract and continuous release should be achieved independent of the pH. However, the solubility of 8-prenylnaringenin is pH-dependent. […] The low acid solubility property of 8-prenylnaringenin results in vitro in slow drug dissolution at pH 1, whereas the dissolution is fast at higher pH-values such as pH 6.8. The resulting dissolution profiles are different at different pH-values. This problem is solved by the solid oral modified release formulation of this invention.

Data set [2] is described as follows: In vitro release/dissolution from mini-matrix tablets, basket apparatus USP XXV. The data set is classed as physicochemical. As for the experimental part: Measurement of the active ingredient release from mini-matrix tablets is carried out according to a one-compartment method (basket apparatus), as described in U.S. Pharmacopeia USP XXV. The release of 8-prenylnaringenin was examined in phosphate buffer solution, pH 6.8 (composition, see USP XXV) or in 0.1 N HCl. Ten percent (w/w) hydroxypropyl-β-cyclodextrine were added in order to achieve sink conditions and primarily control the drug release by the dosage form.

Data set [3] can be described thus: Clinical Phase Ia study: drug serum levels after single oral dose of 8-prenylnaringenin. Type of data set: in vivo, human (postmenopausal women). The text has this:
The pharmacokinetic profile of 8-prenylnaringenin is characterized by a complete oral absorption, a low degree of metabolization (less than 60% of dose) and a high pre-systemic elimination (first-liver-pass excretion; about 55% of dose). This high and unexpected pre-systemic elimination leads to an accumulation of substantial amounts in the bile fluid from which they are secreted into the duodenum when gastric signaling occurs with food intake. The 8-prenylnaringenin is then absorbed again and enters systemic circulation. Data were taken from the clinical Phase Ia study and represent two volunteers in the lowest dose group (50 mg 8-prenylnaringenin).
Taking the total area under the curve as a measure of 8-prenylnaringenin systemic availability, the percentage of the area under the second peak (generated by reabsorption of the pre-systemically eliminated and then biliary secreted amounts) can be used to estimate those portions of the doses that undergo pre-systemic elimination after oral dosing. The average figure was 54±20% for the six women in the study.
Re-increases in drug serum levels show reabsorption of dose parts collected in the bile fluid and subsequently secreted triggered by intake of the midday meal.
8-prenylnaringenin is analyzed by a specifically developed radio-immunoassay. A 4′-O hapten ({4-[5,7-Dihydroxy-8-(3-methyl-but-2-enyl)-4-oxo-chroman-2-yl]-phenoxy}-acetic acid) was synthesized starting from racemic naringenin and coupled to cationized bovine serum albumin (cBSA). This antigen was mixed with Freund's adjuvants and injected into rabbits. The antiserum resulting after several boosters was isolated as an IgG fraction and used in a final dilution of 1:100.000. A tritiated tracer was synthesized by preparation of the 3′,5′-dibromo derivative of 8-prenylnaringenin, again starting from racemic naringenin. Both bromine atoms were exchanged to ^3H in a final, palladium-catalyzed step leading to the tritiated tracer of a specific radioactivity of 2.22 GBq/mg.
Biological matrices, i.e. blood plasma, blood serum, or urine, are either directly extracted with tert-butyl methyl ether (tert-BME) or after enzymatic de-conjugation by means of glucuronidase/arylsulfatase (Helix pomatia). Organic layers are separated, evaporated and the residues taken up in assay buffer. Extract residues or dilutions of standard 8-prenylnaringenin solutions are then mixed with antiserum and tracer and kept at 4° C. overnight. Dextran-coated charcoal is added to separate bound and free 8-prenylnaringenin and bound radioactivity is quantified with a liquid scintillation counter after addition of a scintillation cocktail.

Consider `CC(C)=CCc1c(O)cc(O)c2c1OC(c1ccc(O)cc1)CC2=O` (centres unmarked) [8-prenylnaringenin, 5,7-Dihydroxy-2-(4-hydroxyphenyl)-8-(3-methylbut-2-enyl)-chroman-4-on], for which the “activity on the uterus” value with uterus was “much lower activity on the uterus than estradiol”. Moreover, in data set [1], the solubility entry is on record as “pH-dependent”. In addition, the “drug dissolution in vitro” value in data set [2] (higher pH-values such as pH 6.8) is “fast”. In data set [2] (pH 1), the “drug dissolution in vitro” value was “slow”. For the same molecule, the “percentage of the area under the second peak of total area under the curve (portion of dose undergoing pre-systemic elimination)” value in data set [3] (average for the six women in the study, after oral dosing) came to 54±20%. In data set [3] (oral dosing, human), the degree of metabolization entry was “less than 60 % of dose”, the oral absorption result was “complete” and the “pre-systemic elimination (first-liver-pass excretion)” value is listed as “about 55 % of dose”.
